Positions of bridges follow the written chain, without caps; N, C: chain ends. Residues, ends and D or L forms follow the SMILES beside them. Chains are numbered I, II in the order given.
Assays:
K. pneumonia 4299 = experiment: microbe, parasite or virus in culture; format: cell-based, K. pneumoniae; conditions: 24 h
Method: (§1) MIC of each peptide was determined using the microdilution method in a 96 well microtitre plates (SPL Life Sciences Co., Ltd, Korea). Two-fold serial dilutions of each peptide in Mueller-Hinton Broth (MHB) was prepared from a 1 mg/ml stock solution of the peptide in the same broth, to obtain a final concentration in the range of 0.0976–50 μg/ml in each well. Bacterial suspensions (P. aeruginosa ATCC 27853, P. aeruginosa 4877, P. aeruginosa 23155, K. pneumoniae ATCC 10031 and K. pneumoniae 4299) were prepared by suspending the overnight cultured bacteria in saline and adjusting the inoculum to ~10^8 colony forming units (CFU) per ml. A further 150-fold dilution was then prepared in MHB to achieve a final cell density of 10^5–10^6 CFU/ml. In each well, 100 μl of inoculum was mixed with the equal volume of peptides at their 2× concentration. Positive and negative controls contained 200 μl of inoculum (without any peptide) and broth alone (no peptide/inoculum) respectively. Another negative control in which MHB containing 200 μl of peptide alone in its highest concentration tested (50 μg/ml) was also included to ensure that the optical density measured in the test wells was not due to turbidity of the peptides in solution. The 96 well polystyrene plates were then incubated at 37 °C for 24 h and the optical density at 600 nm (OD600) was measured every 30 min continuously using a TECAN microplate reader (TECAN Infinite 200, Austria). All the experiments were performed in two independent duplicates and the MIC was determined as the lowest peptide concentration in which no visible growth was observed.

P. aeruginosa ATCC 27853 [1] = format: cell-based; conditions: ATCC 27853; for Fractional inhibitory concentration of peptide/PMB, combination with Genta: first number in parenthesis; for Fractional inhibitory concentration of antibiotic, Genta combination: second number in parenthesis
Method: (§2) The synergism between peptides with conventional antibiotics was evaluated using checkerboard assays. For a comparison polymyxin B (PMB) was also tested against each antibiotic. From their stock solutions, two-fold dilutions of each antibiotic and peptide to 1× MIC were prepared in MHB. 50 μl of each peptide concentration was added into the wells of a 96-well polystyrene plates (SPL Life Sciences Co. Ltd, Korea) in a horizontal orientation and the same volume of each antibiotic concentration were then added in a vertical orientation. Bacterial suspensions were prepared in MHB to yield final cell density of ~10^6 CFU/ml and 100 μl of bacterial suspension was mixed with each peptide-antibiotic combinations. This procedure was repeated for wells containing 200 μl of peptide alone and 200 μl of antibiotic alone in various concentrations. The positive and negative controls contained 200 μl of inoculum and MHB alone respectively. The plates were incubated at 37 °C for 24 hours and the optical density at 600 nm (OD600) was monitored as before. Fractional inhibitory concentration index (FICI) for all antibiotic- peptide combinations was calculated through the summation of (MIC of peptide in the combination/ MIC of peptide alone) and (MIC of antibiotics in combination/MIC of antibiotic alone). The experiments were performed in two independent duplicates and the combinations that gave the lowest FICI values was reported.

P. aeruginosa DR4877/07 = format: cell-based; conditions: for Fractional inhibitory concentration of peptide/PMB, combination with Chloarm / Fractional inhibitory concentration of peptide/PMB, combination with Erythro / Fractional inhibitory concentration of peptide/PMB, combination with Levo / Fractional inhibitory concentration of peptide/PMB, combination with Tobra: first number in parenthesis; for Fractional inhibitory concentration of antibiotic, Chloarm combination / Fractional inhibitory concentration of antibiotic, Erythro combination / Fractional inhibitory concentration of antibiotic, Levo combination / Fractional inhibitory concentration of antibiotic, Tobra combination: second number in parenthesis
Method: as §2

P. aeruginosa ATCC 9027 = experiment: Outer membrane permeability assay (NPN); format: cell-based; conditions: no unit in table; Fig. S5 axis [Peptide], μM; 10 μM NPN, 5 mM HEPES pH 7.4, ex 355/em 405 nm; average of two titrations; read-out: PC50 (peptide concentration for half-maximal NPN intensity, OM permeability)
Method: The ability of each peptide to permeabilize the OM of Gram-negative organisms was determined using the hydrophobic fluorescent probe 1-N-phenylnaphthylamine (NPN) as previously reported. P. aeruginosa ATCC 9027 cells from an overnight MHB culture were harvested after centrifuging at 3000 rpm for 10 minutes. The pellet was washed twice, suspended in 5 mM HEPES (N- 2-hydroxyethylpiperazine-N’-2 ethanesulfonic acid) buffer (pH 7.4) and adjusted to an OD600 of 0.200. A suspension containing 600 μl of bacteria cells and 1 μl of a concentrated stock solution of NPN was mixed into a 10 mm stirred quartz cuvette so that the final concentration of the probe remained 10 μM. Aliquots containing 1 μl of each peptide in various concentrations (100, 50, 25, 15, 10, 5, 2.5 and 1 μg/ml) were added upon NPN dye stabilization. The fluorescence intensity was monitored using a Quanta Master spectrophotometer with a constant slit width of 0.5 nm, excitation and emission wavelengths set at 355 nm and 405 nm respectively. The peptide concentration required for half-maximal intensity (PC50) was determined by sigmoidal curve fitting using Graphpad Prism software. The experimental data is average of two independent titration experiments.

K. pneumoniae ATCC10031 = format: cell-based; conditions: ATCC10031, 24 h
Method: as §1

P. aeruginosa 23155 = format: cell-based; conditions: 23155, 24 h
Method: as §1

[2] = system: LPS (E. coli serotype 055:B5); experiment: BODIPY TR cadaverine (BC) displacement assay with LPS; format: binding; conditions: no unit in table; ED50 values in μM; 5 mM HEPES pH 7.4; duplicates; read-out: BC50 (LPS binding)
Text: To investigate the interaction of B2088 with LPS, we performed the BODIPY TR cadaverine (BC) displacement assay reported by Wood et al.[22]. The probe binds to the lipid A part of the LPS with moderate affinity and can be displaced by putative LPS-binding molecules. The method was used to probe the affinity of polycationic molecules and LPS binding proteins. First, we determined the affinity of polymyxin B (PMB), a lipopeptide cyclic antibiotic which has a high affinity for LPS. […] Figure 1a,b show the concentration-dependent displacement of LPS/lipid A-bound BC upon addition of B2088. […] To confirm the importance of branching, we determined the BC50 for a linear retrodimer having the amino acid sequence, […] (Fig. 1d). The determined value was 2-fold higher (3.9 ± 0.1 μM) than that of B2088, confirming a weaker affinity of the linear peptide.
The BC displacement assay was used to determine the ability of each peptide to bind to LPS. The florescent probe, BODIPY TR cadaverine (BC) was purchased from Molecular Probes/ Invitrogen (USA). A stock solution containing 1 mg/ml of LPS (E. coli serotype 055:B5) was prepared in dimethyl sulfoxide (DMSO) and another stock solution containing 1 mg/ml of BC dye was prepared in 5 mM HEPES buffer (pH 7.4). The optimum saturation concentration of BC:LPS ratio was standardized following the protocol provided by Wood et al. (22). From the BC stock, 240 μl was mixed with 500 μl from the LPS stock solution in 5 mM HEPES buffer (pH 7.4) to prepare 20 ml of BC:LPS mixture. Two-fold serial dilutions of each peptide in 5 mM HEPES buffer (pH 7.4) was prepared from their 1 mg/ml stock solutions to obtain a final range of 0.02–25.6 μM. The BC:LPS mixture was added to 100 μl of each peptide congener in a 1:1 ratio in each well of a 96-well black Costar™ polystyrene microtitre plate (Corning Incorporated, NY, USA). The maximum fluorescence intensity (Fmax) was determined using a mixture containing 100 μl PMB (50 μg/ml) and 100 μl BC:LPS solution, as PMB is considered the ‘gold standard’ for LPS-sequestering agents. The minimum fluorescence intensity (F0) was measured using 200 μl of BC:LPS mixture to determine the background noise for this experiment. Fluorescence measurements for each peptide (F) were determined using a microplate reader (Model: TECAN Infinite 200, Austria) with excitation and emission wavelengths set at 580 nm and 620 nm respectively. The percentage of BC displacement was then calculated using the formula: […]
The experiments were performed in duplicates and the effective concentration required for 50% displacement of BC dye (ED50) from LPS with respect to PMB was determined by curve fitting using Graphpad Prism (CA, USA). A higher ED50 value for the peptide indicates a lower affinity for LPS.

P. aeruginosa ATCC 27853 [3] = experiment: microbe, parasite or virus in culture; format: cell-based; conditions: ATCC 27853, 24 h
Method: as §1

N=C(N)NCCC[C@H](NC(=O)CNC(=O)[C@@H](N)CCCNC(=N)N)C(=O)N[C@@H](CCCCN)C(=O)N[C@@H](Cc1c[nH]c2ccccc12)C(=O)N[C@@H](Cc1c[nH]c2ccccc12)C(=O)N[C@@H](CCCNC(=N)N)C(=O)N[C@@H](CCCNC(=N)N)C(=O)NCCCC[C@H](NC(=O)[C@H](CCCNC(=N)N)NC(=O)[C@H](CCCNC(=N)N)NC(=O)[C@H](Cc1c[nH]c2ccccc12)NC(=O)[C@H](Cc1c[nH]c2ccccc12)NC(=O)[C@H](CCCCN)NC(=O)[C@H](CCCNC(=N)N)NC(=O)CNC(=O)[C@@H](N)CCCNC(=N)N)C(=O)N[C@@H](CCCCN)C(=O)O (I: H-RGRKWWRRKK-OH / II: H-RGRKWWRR; amide I:9-II:C; N-terminus and C-terminus assumed)
Minimum Inhibitory Concentration against K. pneumonia 4299 (K. pneumonia 4299): 19 µM | Fractional inhibitory concentration of peptide/PMB, combination with Genta (P. aeruginosa ATCC 27853 [1]): 0.5 | Fractional inhibitory concentration of antibiotic, Genta combination (P. aeruginosa ATCC 27853 [1]): 0.06 | Fractional inhibitory concentration of peptide/PMB, combination with Chloarm (P. aeruginosa DR4877/07): 0.5 | Fractional inhibitory concentration of peptide/PMB, combination with Erythro (P. aeruginosa DR4877/07): (0.5,0.5) | Fractional inhibitory concentration of peptide/PMB, combination with Levo (P. aeruginosa DR4877/07): 0.5 | Fractional inhibitory concentration of peptide/PMB, combination with Tobra (P. aeruginosa DR4877/07): 0.5 | Fractional inhibitory concentration of antibiotic, Chloarm combination (P. aeruginosa DR4877/07): 0.13 | Fractional inhibitory concentration of antibiotic, Erythro combination (P. aeruginosa DR4877/07): (0.5,0.5) | Fractional inhibitory concentration of antibiotic, Levo combination (P. aeruginosa DR4877/07): 0.25 | Fractional inhibitory concentration of antibiotic, Tobra combination (P. aeruginosa DR4877/07): 0.25 | EC50 (P. aeruginosa ATCC 9027): 31.1 ± 4.6 µM | Minimum Inhibitory Concentration against K. pneumoniae ATCC10031 (K. pneumoniae ATCC10031): 9.5 µM | Minimum Inhibitory Concentration against P. aeruginosa 23155 (P. aeruginosa 23155): 9.5 µM | EC50 [2]: 6.8 ± 0.12 µM | Minimum Inhibitory Concentration against P. aeruginosa ATCC 27853 (P. aeruginosa ATCC 27853 [3]): 9.5 µM

CC[C@H](C)[C@H](NC(=O)[C@H](CCCCN)NC(=O)[C@H](CCCNC(=N)N)NC(=O)CNC(=O)[C@@H](N)CCCNC(=N)N)C(=O)N[C@H](C(=O)N[C@@H](CCCNC(=N)N)C(=O)N[C@@H](CCCNC(=N)N)C(=O)NCCCC[C@H](NC(=O)[C@H](CCCNC(=N)N)NC(=O)[C@H](CCCNC(=N)N)NC(=O)[C@@H](NC(=O)[C@@H](NC(=O)[C@H](CCCCN)NC(=O)[C@H](CCCNC(=N)N)NC(=O)CNC(=O)[C@@H](N)CCCNC(=N)N)[C@@H](C)CC)[C@@H](C)CC)C(=O)N[C@@H](CCCCN)C(=O)O)[C@@H](C)CC (I: H-RGRKIIRRKK-OH / II: H-RGRKIIRR; amide I:9-II:C; N-terminus and C-terminus assumed)
Minimum Inhibitory Concentration against K. pneumonia 4299 (K. pneumonia 4299): 5.3 µM | Fractional inhibitory concentration of peptide/PMB, combination with Genta (P. aeruginosa ATCC 27853 [1]): 0.5 | Fractional inhibitory concentration of antibiotic, Genta combination (P. aeruginosa ATCC 27853 [1]): 0.01 | Fractional inhibitory concentration of peptide/PMB, combination with Chloarm (P. aeruginosa DR4877/07): 0.5 | Fractional inhibitory concentration of peptide/PMB, combination with Erythro (P. aeruginosa DR4877/07): (0.5,0.5) | Fractional inhibitory concentration of peptide/PMB, combination with Levo (P. aeruginosa DR4877/07): 0.5 | Fractional inhibitory concentration of peptide/PMB, combination with Tobra (P. aeruginosa DR4877/07): 0.5 | Fractional inhibitory concentration of antibiotic, Chloarm combination (P. aeruginosa DR4877/07): 0.25 | Fractional inhibitory concentration of antibiotic, Erythro combination (P. aeruginosa DR4877/07): (0.5,0.5) | Fractional inhibitory concentration of antibiotic, Levo combination (P. aeruginosa DR4877/07): 0.13 | Fractional inhibitory concentration of antibiotic, Tobra combination (P. aeruginosa DR4877/07): 0.06 | EC50 (P. aeruginosa ATCC 9027): 17 ± 0.2 µM | Minimum Inhibitory Concentration against K. pneumoniae ATCC10031 (K. pneumoniae ATCC10031): 2.7 µM | Minimum Inhibitory Concentration against P. aeruginosa 23155 (P. aeruginosa 23155): 5.3 µM | EC50 [2]: 1.44 ± 0.02 µM | Minimum Inhibitory Concentration against P. aeruginosa ATCC 27853 (P. aeruginosa ATCC 27853 [3]): 2.7 µM
